Measurements published in patent US11878970B2, “Allosteric chromenone inhibitors of phosphoinositide 3-kinase (PI3K) for the treatment of disease” (Petra Pharma Corporation, priority 2021, dated 2024).

Assays:
[1] = target: T1, PI3K-α (PIK3CA) wild-type (WT), p110α/p85α complex (Homo sapiens, UniProt P42336); assay: PI3K-alpha kinase (PIK3CA) biochemical activity, ADP-Glo, wild-type; details: Soy PI lipid substrate
T1 construct: Recombinant, catalytically active human full length PIK3KA Wild-type and H1047R mutant; 6×His (N); purchased EMD Millipore Sigma 14-602M
Summary of the method: (§1)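 ADP formation measured by ADP-Glo luminescence after reaction at 27 °C to about 10% ATP turnover, using 20 uM ATP, 50 uM PIP2diC8 or soy PI lipid, HEPES pH 7.4 with MgCl2. Enzyme (1-5 nM WT or H1047R p110α/p85α) and compound preincubated 1 h first; 10-point 1:3 curves fitted four-parameter for IC50.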

[2] = target: T2, PI3K-α (PIK3CA) H1047R mutant, p110α/p85α complex (Homo sapiens, UniProt P42336, H1047R); assay: PI3K-alpha kinase (PIK3CA) biochemical activity, ADP-Glo, H1047R mutant; details: Soy PI lipid substrate
T2 construct: Recombinant, catalytically active human full length PIK3KA Wild-type and H1047R mutant; 6×His (N); purchased EMD Millipore Sigma 14-792M
Summary of the method: as §1

[3] = target: PI3K-α (PIK3CA) in MDA-MB-453 cells (Homo sapiens, UniProt P42336); assay: PI3K-alpha kinase (PIK3CA) in vitro cell based assay, MDA-MB-453 cells, SureFire Ultra AlphaLisa; details: read-out: PI3K-α (PIK3CA) in vitro cell based assay IC50
Summary of the method: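 Cells treated 3 h in serum-free MEM with 1 μg/mL insulin, 10-point 1:3 series in 0.3% DMSO, then lysed for SureFire Ultra AlphaLisa read-out. Inhibition normalized to DMSO (max) and 1 μM GDC-0032 (min); duplicate averages fitted by 4-parameter logistic for relative IC50.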

T2 sequence (P42336 whole entry H1047R): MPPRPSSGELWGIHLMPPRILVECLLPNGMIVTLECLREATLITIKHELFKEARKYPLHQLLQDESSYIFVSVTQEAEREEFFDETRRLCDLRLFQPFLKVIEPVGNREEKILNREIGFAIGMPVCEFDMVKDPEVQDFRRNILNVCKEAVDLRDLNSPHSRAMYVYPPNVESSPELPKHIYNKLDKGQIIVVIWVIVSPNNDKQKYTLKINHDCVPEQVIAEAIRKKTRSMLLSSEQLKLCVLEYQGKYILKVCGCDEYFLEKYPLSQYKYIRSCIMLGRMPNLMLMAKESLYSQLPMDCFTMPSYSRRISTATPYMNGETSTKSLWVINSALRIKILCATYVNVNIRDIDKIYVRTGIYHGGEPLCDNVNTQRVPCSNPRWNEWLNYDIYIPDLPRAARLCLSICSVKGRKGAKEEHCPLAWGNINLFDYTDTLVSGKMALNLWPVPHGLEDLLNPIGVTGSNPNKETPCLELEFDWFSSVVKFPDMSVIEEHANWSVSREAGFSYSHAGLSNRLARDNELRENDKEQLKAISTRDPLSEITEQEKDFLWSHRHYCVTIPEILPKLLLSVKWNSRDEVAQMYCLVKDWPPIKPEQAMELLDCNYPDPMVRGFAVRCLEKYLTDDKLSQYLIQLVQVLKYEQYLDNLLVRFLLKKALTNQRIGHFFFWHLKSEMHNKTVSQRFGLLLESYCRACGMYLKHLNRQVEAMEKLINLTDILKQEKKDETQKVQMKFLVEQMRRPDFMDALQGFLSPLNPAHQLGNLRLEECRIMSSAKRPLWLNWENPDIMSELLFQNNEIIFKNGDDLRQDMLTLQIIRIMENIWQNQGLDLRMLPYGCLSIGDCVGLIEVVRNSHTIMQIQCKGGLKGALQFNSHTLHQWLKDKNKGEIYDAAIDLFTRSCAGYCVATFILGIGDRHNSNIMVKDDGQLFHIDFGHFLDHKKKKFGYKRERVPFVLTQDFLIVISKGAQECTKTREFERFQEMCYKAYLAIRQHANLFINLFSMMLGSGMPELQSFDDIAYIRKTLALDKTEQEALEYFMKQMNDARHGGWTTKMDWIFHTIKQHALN
T2 sequence (P27986 whole entry partner): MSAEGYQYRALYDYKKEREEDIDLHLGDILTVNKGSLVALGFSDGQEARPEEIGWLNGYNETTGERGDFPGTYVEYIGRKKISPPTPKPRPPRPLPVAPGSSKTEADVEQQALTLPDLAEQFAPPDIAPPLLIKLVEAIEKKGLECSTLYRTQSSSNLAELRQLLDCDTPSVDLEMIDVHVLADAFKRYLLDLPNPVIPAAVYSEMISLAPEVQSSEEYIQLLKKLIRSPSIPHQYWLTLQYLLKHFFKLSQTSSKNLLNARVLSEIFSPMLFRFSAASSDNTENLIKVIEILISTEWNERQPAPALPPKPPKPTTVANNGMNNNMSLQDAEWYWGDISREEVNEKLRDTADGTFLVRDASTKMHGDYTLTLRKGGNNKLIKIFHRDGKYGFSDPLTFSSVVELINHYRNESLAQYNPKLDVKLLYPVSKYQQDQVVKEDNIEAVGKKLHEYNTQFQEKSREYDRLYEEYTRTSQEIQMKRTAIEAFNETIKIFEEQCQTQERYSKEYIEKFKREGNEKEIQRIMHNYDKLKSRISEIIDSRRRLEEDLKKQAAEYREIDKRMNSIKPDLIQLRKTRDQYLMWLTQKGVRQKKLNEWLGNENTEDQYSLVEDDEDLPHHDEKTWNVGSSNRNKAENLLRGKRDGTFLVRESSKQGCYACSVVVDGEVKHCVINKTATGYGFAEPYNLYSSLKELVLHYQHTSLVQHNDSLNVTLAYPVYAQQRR
Chain of PI3K-α (PIK3CA) in MDA-MB-453 cells (P27986 2-724): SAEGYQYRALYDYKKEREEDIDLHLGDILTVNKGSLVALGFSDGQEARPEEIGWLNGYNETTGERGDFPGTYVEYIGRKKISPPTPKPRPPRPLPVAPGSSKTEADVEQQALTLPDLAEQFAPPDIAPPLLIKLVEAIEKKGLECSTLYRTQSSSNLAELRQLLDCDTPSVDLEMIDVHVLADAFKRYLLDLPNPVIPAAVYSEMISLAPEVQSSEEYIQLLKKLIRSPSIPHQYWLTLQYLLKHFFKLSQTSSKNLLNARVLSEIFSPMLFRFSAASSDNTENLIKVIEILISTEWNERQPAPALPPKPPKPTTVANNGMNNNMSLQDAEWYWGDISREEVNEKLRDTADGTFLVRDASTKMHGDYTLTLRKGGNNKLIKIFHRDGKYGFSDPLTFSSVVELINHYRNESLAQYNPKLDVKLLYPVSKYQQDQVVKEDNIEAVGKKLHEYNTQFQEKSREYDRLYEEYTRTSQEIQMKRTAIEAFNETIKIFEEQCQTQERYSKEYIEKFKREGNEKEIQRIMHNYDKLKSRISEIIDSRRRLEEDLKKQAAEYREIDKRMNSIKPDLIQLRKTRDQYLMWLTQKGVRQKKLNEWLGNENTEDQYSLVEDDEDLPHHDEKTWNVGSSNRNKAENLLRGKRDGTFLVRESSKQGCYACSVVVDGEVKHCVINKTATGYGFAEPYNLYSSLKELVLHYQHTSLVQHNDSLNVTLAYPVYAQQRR
Chain of PI3K-α (PIK3CA) in MDA-MB-453 cells (P42336 whole entry): as the sequence (P42336 whole entry H1047R) above, with R1047H counted along it

SMILES	IC50 [1]	IC50 [2]	IC50 [3]
Cc1cc([C@@H](C)Nc2ccccc2C(=O)O)c2oc(-c3cc4cnccc4s3)c(C)c(=O)c2c1 [Example 203, 2-[[(1R)-1-(3,6-Dimethyl-4-oxo-2-thieno[3,2-c]pyridin-2-yl-chromen-8-yl)ethyl]amino]benzoic acid]	< 500 nM	< 500 nM	< 50 nM
Cc1cc([C@@H](C)Nc2ccc(C)nc2C(=O)O)c2oc(-c3ccc4nc(C)sc4n3)c(C)c(=O)c2c1 [Example 265, 3-[[(1R)-1-[3,6-Dimethyl-2-(2-methylthiazolo[5,4-b]pyridin-5-yl)-4-oxo-chromen-8-yl]ethyl]amino]-6-methyl-pyridine-2-carboxylic acid]	1000 to 5000 nM	< 500 nM	50 to 100 nM
Cc1cc([C@@H](C)Nc2ccc(C(F)(F)F)nc2C(=O)O)c2oc(-c3ccc4nn(C)cc4c3)c(C)c(=O)c2c1 [Example 236, 3-[[(1R)-1-[3,6-Dimethyl-2-(2-methylindazol-5-yl)-4-oxo-chromen-8-yl]ethyl]amino]-6-(trifluoromethyl)pyridine-2-carboxylic acid]	500 to 1000 nM	< 500 nM	< 50 nM
CC(Nc1ccc(Cl)nc1C(=O)O)c1cc(C(F)(F)F)cc2c(=O)cc(-c3ccc4cnn(C)c4c3)oc12 (single isomer, unassigned) [Example 108, 6-Chloro-3-[1-[2-(1-methylindazol-6-yl)-4-oxo-6-(trifluoromethyl)chromen-8-yl]ethylamino]pyridine-2-carboxylic acid]	500 to 1000 nM	< 500 nM	< 50 nM
Cc1cc([C@@H](C)Nc2ccc(Cl)nc2C(=O)O)c2oc(-c3ccc4nc(C)sc4n3)cc(=O)c2c1 [Example 251, 6-Chloro-3-[[(1R)-1-[6-methyl-2-(2-methylthiazolo[5,4-b]pyridin-5-yl)-4-oxo-chromen-8-yl]ethyl]amino]pyridine-2-carboxylic acid]	1000 to 5000 nM	< 500 nM	50 to 100 nM
Cc1cc(C(C)Nc2cccc(F)c2C(=O)O)c2oc(-c3ccc4cnn(C)c4c3)cc(=O)c2c1 (single isomer, unassigned) [Example 221, 2-fluoro-6-[1-[6-methyl-2-(1-methylindazol-6-yl)-4-oxo-chromen-8-yl]ethylamino]benzoic acid]	500 to 1000 nM	1000 to 5000 nM	> 500 nM
Cc1cc([C@@H](C)Nc2ccccc2C(=O)O)c2oc(-c3cc(C(F)(F)F)c4nn(C)cc4c3)cc(=O)c2c1 [Example 198, 2-[[(1R)-1-[6-Methyl-2-[2-methyl-7-(trifluoromethyl)indazol-5-yl]-4-oxo-chromen-8-yl]ethyl]amino]benzoic acid]	< 500 nM	< 500 nM	50 to 100 nM
Cc1cc([C@@H](C)Nc2cccc(F)c2C(=O)O)c2oc(-c3ccc4nc(C)cn4c3)cc(=O)c2c1 [Example 228, 2-Fluoro-6-[[(1R)-1-[6-methyl-2-(2-methylimidazo[1,2-a]pyridin-6-yl)-4-oxo-chromen-8-yl]ethyl]amino]benzoic acid]	500 to 1000 nM	< 500 nM	100 to 500 nM
Cc1cc([C@@H](C)Nc2ccccc2C(=O)O)c2oc(-c3ccc4nc(C)sc4c3)c(C)c(=O)c2c1 [Example 262, 2-[[(1R)-1-[3,6-Dimethyl-2-(2-methyl-1,3-benzothiazol-6-yl)-4-oxo-chromen-8-yl]ethyl]amino]benzoic acid]	500 to 1000 nM	< 500 nM	< 50 nM
Cc1cc(C(C)Nc2ccc(Cl)nc2C(=O)O)c2oc(-c3ccc4cnn(C)c4c3)cc(=O)c2c1 (single isomer, unassigned) [Example 220, 6-Chloro-3-[1-[6-methyl-2-(1-methylindazol-6-yl)-4-oxo-chromen-8-yl]ethylamino]pyridine-2-carboxylic acid]	< 500 nM	< 500 nM	< 50 nM
Cc1cc(C(C)Nc2ccccc2C(=O)O)c2oc(-c3ccc4ncccc4n3)cc(=O)c2c1 (single isomer, unassigned) [Example 252, 2-[1-[6-Methyl-2-(1,5-naphthyridin-2-yl)-4-oxo-chromen-8-yl]ethylamino]benzoic acid]	1000 to 5000 nM	500 to 1000 nM	< 50 nM
Cc1cc(C(C)Nc2ccccc2C(=O)O)c2oc(-c3cc(Cl)c4nn(C)cc4c3)cc(=O)c2c1 (single isomer, unassigned) [Example 95, 2-[1-[2-(7-Chloro-2-methyl-indazol-5-yl)-6-methyl-4-oxo-chromen-8-yl]ethylamino]benzoic acid]	500 to 1000 nM	< 500 nM	< 50 nM
Cc1cc(C(C)Nc2ccccc2C(=O)O)c2oc(-c3ccc4cn(C)nc4c3)cc(=O)c2c1 (single isomer, unassigned) [Example 1, 2-[1-[6-Methyl-2-(2-methylindazol-6-yl)-4-oxo-chromen-8-yl]ethylamino]benzoic acid]	1000 to 5000 nM	< 500 nM	50 to 100 nM
Cc1cc(C(C)Nc2ccccc2C(=O)O)c2oc(-c3ccc4[nH]ncc4c3)c(C)c(=O)c2c1 (single isomer, unassigned) [Example 132, 2-[1-[2-(1H-Indazol-5-yl)-3,6-dimethyl-4-oxo-chromen-8-yl]ethylamino]benzoic acid]	500 to 1000 nM	< 500 nM	< 50 nM
Cc1cc(C(C)Nc2ccccc2C(=O)O)c2oc(-c3ccc4nn(C)cc4n3)cc(=O)c2c1 (single isomer, unassigned) [Example 54, 2-[1-[6-Methyl-2-(2-methylpyrazolo[4,3-b]pyridin-5-yl)-4-oxo-chromen-8-yl]ethylamino]benzoic acid]	1000 to 5000 nM	< 500 nM	< 50 nM
CC(Nc1ccccc1C(=O)O)c1cc(C(F)(F)F)cc2c(=O)cc(-c3ccc4c(cnn4C)c3)oc12 (single isomer, unassigned) [Example 109, 2-[1-[2-(1-Methylindazol-5-yl)-4-oxo-6-(trifluoromethyl)chromen-8-yl]ethylamino]benzoic acid]	1000 to 5000 nM	< 500 nM	< 50 nM
COc1ccc2nc(-c3cc(=O)c4cc(C)cc([C@@H](C)Nc5ccccc5C(=O)O)c4o3)ccc2n1 [Example 255, 2-[[(1R)-1-[2-(6-Methoxy-1,5-naphthyridin-2-yl)-6-methyl-4-oxo-chromen-8-yl]ethyl]amino]benzoic acid]	1000 to 5000 nM	500 to 1000 nM	50 to 100 nM
Cc1cc([C@@H](C)Nc2cccc(F)c2C(=O)O)c2oc(-c3ccc4nc(C)sc4n3)cc(=O)c2c1 [Example 257, 2-Fluoro-6-[[(1R)-1-[6-methyl-2-(2-methylthiazolo[5,4-b]pyridin-5-yl)-4-oxo-chromen-8-yl]ethyl]amino]benzoic acid]	1000 to 5000 nM	< 500 nM	< 50 nM
Cc1cc(C(C)Nc2ccccc2C(=O)O)c2oc(-c3ccc4nn(C)cc4c3)cc(=O)c2c1 (single isomer, unassigned) [Example 75, 2-[1-[6-Methyl-2-(2-methylindazol-5-yl)-4-oxo-chromen-8-yl]ethylamino]benzoic acid]	500 to 1000 nM	< 500 nM	< 50 nM
Cc1cc(C(C)Nc2ccc(Cl)nc2C(=O)O)c2oc(-c3ccc4cc[nH]c4n3)cc(=O)c2c1 (single isomer, unassigned) [Example 216, 6-Chloro-3-[1-[6-methyl-4-oxo-2-(1H-pyrrolo[2,3-b]pyridin-6-yl)chromen-8-yl]ethylamino]pyridine-2-carboxylic acid]	> 10000 nM	1000 to 5000 nM	> 500 nM
Cc1cc(C(C)Nc2ccc(Cl)nc2C(=O)O)c2oc(-c3ccc4cc[nH]c4n3)cc(=O)c2c1 (single isomer, unassigned) [Example 215, 6-Chloro-3-[1-[6-methyl-4-oxo-2-(1H-pyrrolo[2,3-b]pyridin-6-yl)chromen-8-yl]ethylamino]pyridine-2-carboxylic acid]	500 to 1000 nM	< 500 nM	< 50 nM
Cc1cc(C(C)Nc2ccccc2C(=O)O)c2oc(-c3ccc4nc(C#N)ccc4c3)cc(=O)c2c1 (single isomer, unassigned) [Example 207, 2-[1-[2-(2-Cyano-6-quinolyl)-6-methyl-4-oxo-chromen-8-yl]ethylamino]benzoic acid]	500 to 1000 nM	< 500 nM	50 to 100 nM
Cc1cc([C@@H](C)Nc2cccc(F)c2C(=O)O)c2oc(-c3ccc4c(cnn4C)c3)cc(=O)c2c1 [Example 197, 2-Fluoro-6-[[(1R)-1-[6-methyl-2-(1-methylindazol-5-yl)-4-oxo-chromen-8-yl]ethyl]amino]benzoic acid]	500 to 1000 nM	< 500 nM	< 50 nM
Cc1cc(C(C)Nc2ccc(Cl)nc2C(=O)O)c2oc(-c3cc4ccccc4[nH]3)cc(=O)c2c1 (single isomer, unassigned) [Example 223, 6-Chloro-3-[1-[2-(1H-indol-2-yl)-6-methyl-4-oxo-chromen-8-yl]ethylamino]pyridine-2-carboxylic acid]	500 to 1000 nM	< 500 nM	< 50 nM
